Source: patent US11851712B2, “Replication stress response biomarkers for immunotherapy response” (Board of Regents, The University of Texas System, priority 2018, dated 2023)

Experiments:
[1] = system: RSRD cells (MCF-10A cyclin E); experiment: Senescence assay (senescence-associated β galactosidase staining); type: cell-based, human; settings: 0.5 μM AZD6244 (MEKi) or 0.1 μM ERKi (SCH772984) for 48 hours
Experimental: Senescence assay. shCTRL, shCTRL_cycE, and RSRD cells (5×10^4) were seeded in 6 wells for 48 h prior to treatment with MEK or ERK inhibitors in presence or absence of 2 μg/mL doxycycline to induce cyclin E expression. After the addition of these inhibitors, cells were cultured for another 48 h. Next, a senescence assay was performed using the senescence β-galactosidase staining kit according to the manufacturer's protocol. The percentage of senescent cells was calculated using the ratio of SA-βgal-positive cells to total cells. Mammosphere Formation Assay RSR defect model cells (5000) were seeded in an ultra-low-attachment surface 6-well plate (Corning) in mammosphere medium (50% DMEM, 50% DMEM/F12, […] hydrocortisone, 10 μg/mL insulin, 20 ng/mL recombinant EGF, 100 ng/mL cholera toxin) for 7 days in presence or absence of 2 μg/mL doxycycline to induce cyclin E expression. Spheres with diameters larger than 50 μm were scored as mammospheres.

[2] = system: MCF10A shATR cells; experiment: Stem cell score from gene expression; type: cell-based, human; settings: 48 hours, 0.5 μM AZD6244, MCF10A shATR cells
Experimental: Microarrays. Microarray analysis was conducted as described previously (Peng et al., 2014). Specifically, total RNA was extracted from the cells 48 hours after plating in presence or absence of doxycycline using a QIAGEN RNeasy RNA isolation kit. Complementary RNA was generated using a TotalPrep RNA amplification kit and loaded onto a HumanHT-12 v4 Expression BeadChip for analysis using the manufacturer's procedure.
Expression signature score. Expression signature scores were computed based on correlation coefficient between the coefficients in the gene signature and corresponding expression level in a given sample (McGrail et al., 2017; van de Vijver et al., 2002), with higher values representing a stronger correlation.

[3] = system: breast cancer cell lines / MCF10A shATR over-expressing cyclin E; experiment: Aldehyde dehydrogenase assay (Aldefluor, flow cytometry), CSC depletion; type: cell-based, human; settings: 48 hours, AZD6244 0.5 or 1.0 μM, SCH772984 0.1 or 1.0 μM, MDA-MB-231, MDA-MB-436, MCF7-stem, M158, 4T1
Experimental: Aldehyde dehydrogenase assay. Aldehyde dehydrogenase was detected using the Aldefluor kit ([…] Technologies) per the manufacturer's instructions. In brief, 1×10^6 cells/mL were incubated with Aldefluor reagent in presence or absence of ALDH inhibitor DEAB for 45 minutes at 37° C. Cells were washed, re-suspended in ALDH buffer, and analyzed by flow cytometry. Positive cells were gated relative to the DEAB-treated negative control. In some instances, cells were treated with AZD6244, SCH772984, or 2 μg/mL doxycycline 48 hours prior to analysis.

[4] = system: p21; experiment: Western blot of p21 protein; type: cell-based, human; settings: 0.5 μM AZD6244 or 0.1 μM SCH772984 for 48 hours, doxycycline 2 μg/mL
[5] = system: 4T1 murine mammary carcinoma; experiment: 4T1 murine mammary carcinoma in syngeneic mice, combination with anti-PD1; type: in vivo; settings: 25 mg/kg AZD7762 plus 10 mg/kg anti-PD1 (clone RMP1-14), Balb\C mice
Excerpt: FIG. 18. […] The 4T1 murine mammary carcinoma was implanted into syngeneic (Balb\C) mice and allowed to grow to ˜[…] before randomization.

[6] = system: MDM2 phosphorylation; experiment: Western blot of MDM2 phosphorylation; type: cell-based, human; settings: 0.1 μM SCH772984 for 48 hours vs DMSO
[7] = system: p53; experiment: Western blot of p53 levels; type: cell-based, human; settings: 0.1 μM SCH772984 for 48 hours vs DMSO
[8] = target: ATR (Homo sapiens, UniProt Q13535); settings: read-out: kinase inhibition IC50; cited from earlier work
[9] = system: GBM patients; settings: neoadjuvant treatment, Cloughesy et al. (2019); cited from earlier work

Sequence of ATR (Q13535 whole entry): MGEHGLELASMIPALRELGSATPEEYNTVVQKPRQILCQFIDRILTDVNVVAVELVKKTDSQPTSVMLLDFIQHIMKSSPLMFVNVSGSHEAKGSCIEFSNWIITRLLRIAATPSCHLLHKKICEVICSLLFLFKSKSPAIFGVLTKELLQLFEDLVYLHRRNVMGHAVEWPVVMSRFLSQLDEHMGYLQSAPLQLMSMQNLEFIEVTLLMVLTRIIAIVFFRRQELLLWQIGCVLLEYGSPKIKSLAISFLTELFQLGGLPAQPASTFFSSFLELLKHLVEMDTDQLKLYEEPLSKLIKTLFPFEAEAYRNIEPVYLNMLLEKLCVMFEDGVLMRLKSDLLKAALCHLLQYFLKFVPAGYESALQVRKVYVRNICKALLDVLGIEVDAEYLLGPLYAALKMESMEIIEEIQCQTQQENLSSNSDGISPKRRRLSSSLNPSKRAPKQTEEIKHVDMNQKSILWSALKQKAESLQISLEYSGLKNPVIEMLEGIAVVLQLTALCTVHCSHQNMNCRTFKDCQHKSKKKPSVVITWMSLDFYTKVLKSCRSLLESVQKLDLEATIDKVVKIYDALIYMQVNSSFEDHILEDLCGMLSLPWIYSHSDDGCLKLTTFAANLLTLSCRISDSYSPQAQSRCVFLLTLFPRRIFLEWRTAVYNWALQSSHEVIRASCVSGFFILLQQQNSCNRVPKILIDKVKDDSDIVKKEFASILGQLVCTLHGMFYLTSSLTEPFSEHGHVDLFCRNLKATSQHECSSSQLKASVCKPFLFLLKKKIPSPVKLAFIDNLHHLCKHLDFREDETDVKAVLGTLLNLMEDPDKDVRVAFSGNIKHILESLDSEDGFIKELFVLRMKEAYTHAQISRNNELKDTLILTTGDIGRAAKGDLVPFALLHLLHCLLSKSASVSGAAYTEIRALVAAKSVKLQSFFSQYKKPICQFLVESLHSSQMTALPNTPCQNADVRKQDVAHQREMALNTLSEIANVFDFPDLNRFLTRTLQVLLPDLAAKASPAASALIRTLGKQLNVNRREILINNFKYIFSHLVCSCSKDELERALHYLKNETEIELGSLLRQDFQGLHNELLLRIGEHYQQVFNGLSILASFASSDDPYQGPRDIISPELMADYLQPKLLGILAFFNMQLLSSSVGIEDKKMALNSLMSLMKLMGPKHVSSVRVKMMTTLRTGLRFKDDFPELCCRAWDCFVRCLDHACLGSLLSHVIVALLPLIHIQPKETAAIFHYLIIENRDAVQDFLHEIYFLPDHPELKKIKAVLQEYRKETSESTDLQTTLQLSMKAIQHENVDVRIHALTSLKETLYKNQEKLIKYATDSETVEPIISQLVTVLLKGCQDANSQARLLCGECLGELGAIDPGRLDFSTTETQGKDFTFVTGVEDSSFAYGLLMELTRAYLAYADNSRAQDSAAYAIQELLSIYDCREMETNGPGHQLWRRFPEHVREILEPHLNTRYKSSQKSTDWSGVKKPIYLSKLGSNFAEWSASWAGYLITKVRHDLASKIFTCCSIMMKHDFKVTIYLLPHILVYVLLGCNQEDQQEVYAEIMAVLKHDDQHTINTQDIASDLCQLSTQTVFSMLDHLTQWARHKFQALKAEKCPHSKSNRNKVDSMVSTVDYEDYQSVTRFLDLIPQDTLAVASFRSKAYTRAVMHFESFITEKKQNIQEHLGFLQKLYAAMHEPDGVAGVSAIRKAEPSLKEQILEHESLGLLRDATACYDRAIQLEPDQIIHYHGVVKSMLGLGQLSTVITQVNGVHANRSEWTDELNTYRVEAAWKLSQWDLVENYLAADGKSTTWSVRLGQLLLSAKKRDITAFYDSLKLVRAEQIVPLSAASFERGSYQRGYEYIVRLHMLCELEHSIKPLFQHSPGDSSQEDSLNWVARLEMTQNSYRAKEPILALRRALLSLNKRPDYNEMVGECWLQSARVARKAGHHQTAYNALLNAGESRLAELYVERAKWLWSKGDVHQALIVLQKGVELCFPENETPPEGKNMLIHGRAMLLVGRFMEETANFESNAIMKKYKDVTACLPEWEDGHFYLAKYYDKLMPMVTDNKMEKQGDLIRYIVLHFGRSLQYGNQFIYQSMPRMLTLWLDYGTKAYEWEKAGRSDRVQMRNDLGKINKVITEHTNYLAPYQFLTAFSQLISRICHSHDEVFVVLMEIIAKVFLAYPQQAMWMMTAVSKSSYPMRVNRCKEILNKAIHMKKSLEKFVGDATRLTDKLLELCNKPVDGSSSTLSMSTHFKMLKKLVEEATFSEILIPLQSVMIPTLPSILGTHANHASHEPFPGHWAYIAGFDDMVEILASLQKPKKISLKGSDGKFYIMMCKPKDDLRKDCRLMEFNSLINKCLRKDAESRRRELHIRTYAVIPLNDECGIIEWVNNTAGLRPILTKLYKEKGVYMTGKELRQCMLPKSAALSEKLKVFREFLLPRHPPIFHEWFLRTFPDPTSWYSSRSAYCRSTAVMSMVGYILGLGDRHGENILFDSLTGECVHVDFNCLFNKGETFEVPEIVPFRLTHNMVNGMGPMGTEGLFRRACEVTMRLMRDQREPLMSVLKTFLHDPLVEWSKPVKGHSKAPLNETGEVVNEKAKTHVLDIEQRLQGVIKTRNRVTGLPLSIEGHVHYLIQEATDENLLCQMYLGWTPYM
Sequence of ATR (Q8WXE1 whole entry partner): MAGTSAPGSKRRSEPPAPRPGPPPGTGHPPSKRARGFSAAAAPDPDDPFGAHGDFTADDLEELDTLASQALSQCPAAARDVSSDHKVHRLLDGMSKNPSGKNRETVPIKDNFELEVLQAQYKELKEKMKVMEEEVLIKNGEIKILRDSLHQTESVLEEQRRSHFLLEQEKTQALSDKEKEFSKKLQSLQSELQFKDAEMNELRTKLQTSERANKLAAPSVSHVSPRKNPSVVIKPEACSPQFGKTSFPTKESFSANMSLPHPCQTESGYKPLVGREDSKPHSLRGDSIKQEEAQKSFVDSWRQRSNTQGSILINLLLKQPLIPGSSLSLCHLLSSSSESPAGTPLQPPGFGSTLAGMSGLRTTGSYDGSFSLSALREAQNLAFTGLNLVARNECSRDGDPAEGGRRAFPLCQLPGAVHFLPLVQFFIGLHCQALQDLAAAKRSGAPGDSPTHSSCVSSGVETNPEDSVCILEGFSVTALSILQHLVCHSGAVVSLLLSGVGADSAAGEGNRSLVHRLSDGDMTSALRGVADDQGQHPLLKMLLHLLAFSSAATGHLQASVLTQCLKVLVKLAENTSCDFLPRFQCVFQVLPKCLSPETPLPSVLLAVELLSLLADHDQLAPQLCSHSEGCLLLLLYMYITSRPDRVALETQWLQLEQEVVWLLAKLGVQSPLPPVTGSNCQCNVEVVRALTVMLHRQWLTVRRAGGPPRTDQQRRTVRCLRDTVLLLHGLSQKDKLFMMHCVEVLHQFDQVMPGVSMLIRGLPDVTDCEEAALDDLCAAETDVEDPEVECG

Compound | oncogene-induced senescence by staining for senescence-associated β galactosidase [1] | CSC depletion by aldehyde dehydrogenase (ALDH) positivity [3] | p21 protein expression [4] | also measured
Cn1cnc2c(F)c(Nc3ccc(Br)cc3Cl)c(C(=O)NOCCO)cc21 [AZD6244] | restores oncogene-induced senescence | CSCs are depleted | recovers p21 protein expression | Stem cell score [2]: can reverse the stem-cell phenotype
NC(=O)Nc1cc(-c2cccc(F)c2)sc1C(=O)N[C@H]1CCCNC1 [AZD7762] | – | – | – | tumor growth, sensitization to immunotherapy [5]: sensitizes cells to immunotherapy
O=C(Nc1ccc2[nH]nc(-c3ccncc3)c2c1)[C@@H]1CCN(CC(=O)N2CCN(c3ccc(-c4ncccn4)cc3)CC2)C1 [SCH772984] | restores oncogene-induced senescence | CSCs are depleted | recovers p21 protein expression | MDM2 phosphorylation [6]: suppression of MDM2 phosphorylation; p53 levels [7]: negligible changes in p53 levels
CS(=O)(=O)c1ccc(-c2cnc(N)c(C(=O)Nc3ccccc3)n2)cc1 [VE821] | – | – | – | IC50 [8]: 15 nM
pembrolizumab: anti-PD-1 antibody described in WO2009/114335 | – | – | – | improvement in survival [9]: 6.2 month
